Measurements taken from PubChem BioAssay (NCI).
Where “and” joins values, the source holds several entries; their conditions need not be identical. Equal values may be shown once.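 Grown in 96-well plates, cells were treated for 48 hours with each compound at five concentrations. Insufficient inhibition: endpoint recorded as highest concentration tested. GI50: concentration for 50% inhibition of growth. TGI is the concentration that stops growth completely.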

What was measured:
Assay in all cases: NCI tumour cell line growth inhibition, 48 h
COLO 205 colon = system: COLO 205 colon
HCT-116 colon = system: HCT-116 colon
OVCAR-8 ovarian = system: OVCAR-8 ovarian
SK-MEL-2 melanoma = system: SK-MEL-2 melanoma
SNB-19 CNS = system: SNB-19 CNS
SW-620 colon = system: SW-620 colon
U251 CNS = system: U251 CNS
UACC-62 melanoma = system: UACC-62 melanoma
OVCAR-3 ovarian = system: OVCAR-3 ovarian
BT-549 breast = system: BT-549 breast

| Structure (SMILES) | GI50 (COLO 205 colon) | TGI (COLO 205 colon) | GI50 (HCT-116 colon) | TGI (HCT-116 colon) | GI50 (OVCAR-8 ovarian) | TGI (OVCAR-8 ovarian) | GI50 (SK-MEL-2 melanoma) | TGI (SK-MEL-2 melanoma) | GI50 (SNB-19 CNS) | TGI (SNB-19 CNS) | GI50 (SW-620 colon) | TGI (SW-620 colon) | GI50 (U251 CNS) | TGI (U251 CNS) | GI50 (UACC-62 melanoma) | TGI (UACC-62 melanoma) | TGI (OVCAR-3 ovarian) | GI50 (BT-549 breast) | TGI (BT-549 breast) | GI50 (OVCAR-3 ovarian) |
| --- | --- | --- | --- | --- | --- | --- | --- | --- | --- | --- | --- | --- | --- | --- | --- | --- | --- | --- | --- | --- |
| Cc1ccc(Cl)cc1NC(=O)c1sc2nc3c(cc2c1N)C(=O)CCC3 | 4.41 µM | > 100 µM | 5.97 µM | > 100 µM | > 100 µM | > 100 µM | 3.14 µM | > 100 µM | 5.64 µM | > 100 µM | 3.68 µM | > 100 µM | 4.45 µM | > 100 µM | 4.45 µM | > 100 µM |  |  |  |  |
| N#CC1CCCCCCCCCCC(=O)N(CCCl)C1=O (centres undefined) |  | > 100 µM |  |  |  | > 100 µM |  | > 100 µM |  | > 100 µM |  | > 100 µM |  | > 100 µM |  | > 100 µM | > 100 µM |  |  |  |
| COc1ccccc1NC(=O)CC(=O)N/N=C/c1ccc(N(CCC#N)S(=O)(=O)c2ccccc2)cc1 |  | > 100 µM |  | > 100 µM |  | > 100 µM |  | > 100 µM |  | > 100 µM |  | > 100 µM |  | > 100 µM |  | > 100 µM | > 100 µM |  |  |  |
| N#Cc1cccc(/C=N/N=C(\N)NO)c1 |  | > 100 µM |  | > 100 µM |  | > 100 µM |  | > 100 µM |  | > 100 µM |  | > 100 µM |  | > 100 µM |  | 52.8 µM | > 100 µM |  |  |  |
| O=Cc1c(O)c(C(=O)Nc2ccc3[nH]c(=O)[nH]c3c2)cc2ccccc12 |  | > 100 µM |  | > 100 µM |  | > 100 µM |  | > 100 µM |  | > 100 µM |  | > 100 µM |  | > 100 µM |  | > 100 µM | > 100 µM |  |  |  |
| CC(=O)OCC1OC(n2c(-c3ccc(C)cc3)cc(-c3ccccc3)c(C#N)c2=O)C(OC(C)=O)C(OC(C)=O)C1OC(C)=O (centres undefined) |  | > 100 µM |  | > 100 µM |  | > 100 µM |  | > 100 µM |  | > 100 µM |  | > 100 µM |  | > 100 µM |  | > 100 µM | > 100 µM |  |  |  |
| N#CC1CC2(CCN1C(=O)c1ccccc1)OCCO2 (centres undefined) |  | > 100 µM |  | > 100 µM |  | > 100 µM |  | > 100 µM |  | > 100 µM |  | > 100 µM |  | > 100 µM |  | > 100 µM | > 100 µM |  |  |  |
| COC(C)(C)C/C=C/C(C)=C/C=C/C(C)=C\C=C\C(C)=C\C=C\C=C(C)\C=C\C=C(C)\C=C\C=C(C)\C=C\CC(C)(C)OC | > 150 µg/mL | > 150 µg/mL | > 150 µg/mL | > 150 µg/mL | > 150 µg/mL | > 150 µg/mL | > 150 µg/mL | > 150 µg/mL | > 150 µg/mL | > 150 µg/mL | > 150 µg/mL | > 150 µg/mL | > 150 µg/mL | > 150 µg/mL | > 150 µg/mL | > 150 µg/mL |  |  |  |  |
| CC(C)OP(=O)(NC(=S)c1ccccc1)OC(C)C |  | > 100 µM |  | > 100 µM |  | > 100 µM |  | > 100 µM |  | > 100 µM |  | > 100 µM |  | > 100 µM |  | > 100 µM | > 100 µM |  |  |  |
| NC(N)=NS(=O)(=O)c1ccc(NCCc2c3ccccc3nc3ccccc23)cc1 |  | > 100 µM |  | > 100 µM |  | > 100 µM |  | > 100 µM |  | > 100 µM |  | > 100 µM |  | > 100 µM |  |  | > 100 µM |  |  |  |
| Cc1cc2c(C)nn(Cc3ccc(Cl)cc3)c2c(C#N)c1C |  | > 100 µM |  | > 100 µM |  | > 100 µM |  | > 100 µM |  | > 100 µM |  | > 100 µM |  | > 100 µM |  | > 100 µM | > 100 µM |  |  |  |
| S=P(N1CC1)(N1CC1)N1CC1 |  |  | 21.2 µM and 171 µM | 46.1 µM and 317 µM and 367 µM | 20.1 µM and 93.7 µM | 58.5 µM and 523 µM and 323 µM |  |  | 18.5 µM and 180 µM | > 78.4 µM and 719 µM and 787 µM |  |  |  |  |  |  | 48.8 µM and 381 µM and 470 µM | 224 µM | 507 µM and 445 µM |  |
| Cc1cc(Cl)ccc1NC(=O)CC1SC(=Nc2ccccc2Cl)NC1=O (centres undefined) |  | 47.1 µM |  | > 100 µM |  | > 100 µM |  | > 100 µM |  | > 100 µM |  | > 100 µM |  | > 100 µM |  | > 100 µM | > 100 µM |  |  |  |
| COC(=O)/C=C/c1cc2c(cc1-c1c(C(=O)O)cc(OC)c(OC)c1OC)OCO2 |  | > 10 µM |  | > 10 µM |  | > 10 µM |  |  |  | > 10 µM |  | > 10 µM |  | > 10 µM |  | > 10 µM | > 10 µM |  | > 10 µM |  |
| O=C1C(=Cc2c(O)cc(O)cc2O)C(=O)c2ccccc21 |  | > 56 µM |  | > 53.7 µM |  | > 59.7 µM |  | > 56.5 µM |  | > 56.9 µM |  | > 56.5 µM |  | > 57.2 µM |  | > 54.9 µM | > 55 µM |  |  |  |
| COC(=O)CC[C@H](Cc1ccccc1)NC(=O)c1csc([C@@H](C[C@H](C(C)C)N(C)C(=O)[C@@H](NC(=O)[C@H]2CCCCN2C)C(C)C)OC(C)=O)n1 |  |  | < 0.0025 µM | > 25 µM | 0.00318 µM | > 25 µM |  |  |  |  | < 0.0025 µM | > 25 µM | < 0.0025 µM | > 25 µM | < 0.0025 µM | > 25 µM | > 25 µM | 0.00275 µM | 0.137 µM | < 0.0025 µM |
| CC(C)(c1ccccc1)c1ccc(OC#N)cc1 |  | > 56.5 µM |  | > 65.7 µM |  | > 100 µM |  | > 100 µM |  | > 100 µM |  | > 100 µM |  | > 100 µM |  | > 100 µM | > 100 µM |  |  |  |
| Cn1cc2ccccc2c1-c1nc(F)nc(OCC(=O)[C@H]2CCC3[C@@H]4CCC5=CC(=O)CC[C@]5(C)C4[C@@H](O)C[C@@]32C)n1 (some centres undefined) |  | 40.1 µM |  | 27 µM |  | 18.5 µM |  | 31.3 µM |  | 36 µM |  | 33.4 µM |  | 36 µM |  | 36.7 µM | 33.2 µM |  |  |  |
| O=C1c2ccccc2-c2c1c1ccccc1c(=O)n2CCCn1ccnc1 | 5.41 µM | > 100 µM | 1.4 µM | 13.8 µM | 0.87 µM | 2.39 µM | 7.78 µM | > 100 µM | 2.11 µM | > 100 µM | 0.949 µM | 30.2 µM | 0.793 µM | 6.83 µM | 0.791 µM | 2.29 µM |  | 3.36 µM | > 100 µM |  |
| CC1(C)C2C=CC1C(=O)CC2 (centres undefined) |  |  |  | > 100 µM |  | > 100 µM |  | > 100 µM |  | > 100 µM |  | > 100 µM |  | > 100 µM |  |  | > 100 µM |  |  |  |
